Where “and” joins values, the source holds several entries; their conditions need not be identical. Equal entries are not always repeated. Structures can show the parent of a compound that is named as a salt. Where two headings read alike, the source gives them in different places.
Tests used:
[1] = test system: MCC13 cells (VN-MCC); assay: qHTS cell viability (CellTiter-Glo, 72 h; primary and follow-up small molecule screen); format: cell-based, human
[2] = test system: MCC26 cells (VN-MCC); assay: as above; format: cell-based, human
[3] = test system: UISO cells (VN-MCC); assay: as above; format: cell-based, human
[4] = test system: WAGA cells (VP-MCC); assay: as above; format: cell-based, human
[5] = test system: MKL-1 cells (VP-MCC); assay: as above; format: cell-based, human
[6] = test system: MKL-2 cells (VP-MCC); assay: as above; format: cell-based, human
[7] = test system: HACAT cells; assay: qHTS cell viability (CellTiter-Glo, 72 h; primary screen), control cell line; format: cell-based, human
[8] = test system: HEK293T cells; assay: as above; format: cell-based, human
[9] = test system: NIH-3T3 cells; assay: as above; format: cell-based, mouse
[10] = test system: CRL-7250 cells; assay: as above; format: cell-based
[11] = test system: MCC cell lines (WAGA, MKL-1, MKL-2, MCC13, MCC26, UISO); assay: qHTS cell viability, all six MCC cell lines as a group (mean AUC, MCC.avg); format: cell-based, human
[12] = test system: VP-MCC cell lines (WAGA, MKL-1, MKL-2); assay: qHTS cell viability, VP-MCC cell lines as a group (mean AUC, VP.MCC.avg); format: cell-based, human
[13] = test system: VN-MCC cell lines (MCC13, MCC26, UISO); assay: qHTS cell viability, VN-MCC cell lines as a group (mean AUC, VN.MCC.avg); format: cell-based, human
[14] = test system: control cell lines (HACAT, HEK293T, CRL-7250, NIH-3T3); assay: qHTS cell viability, control cell lines as a group (mean AUC, Control.avg); format: cell-based
[15] = test system: six MCC cell lines and four control cell lines; assay: qHTS cell viability, all 10 cell lines screened; format: cell-based
[16] = NPC library, qHTS dose-response AUC, MCC13
[17] = NPC library, qHTS dose-response AUC, MCC26
[18] = NPC library, qHTS dose-response AUC, UISO
[19] = NPC library, qHTS dose-response AUC, WAGA
[20] = NPC library, qHTS dose-response AUC, MKL1
[21] = NPC library, qHTS dose-response AUC, MKL2
[22] = NPC library, qHTS dose-response AUC, HACAT control
[23] = NPC library, qHTS dose-response AUC, HEK293T control
[24] = NPC library, qHTS dose-response AUC, NIH3T3 control
[25] = NPC library, qHTS dose-response AUC, CRL7250 control
[26] = NPC library, mean AUC of six MCC cell lines
[27] = NPC library, mean AUC of VP-MCC cell lines
[28] = NPC library, therapeutic window: Control avg AUC minus VP-MCC avg AUC
[29] = NPC library, mean AUC of VN-MCC cell lines
[30] = NPC library, therapeutic window: Control avg AUC minus VN-MCC avg AUC
[31] = NPC library, mean AUC of control cell lines
[32] = NPC library, therapeutic window: Control avg AUC minus MCC avg AUC

SMILES	MCC13_AUC [1, 16]	MCC26_AUC [2, 17]	UISO_AUC [3, 18]	WAGA_AUC [4, 19]	MKL1_AUC [5, 20]	MKL2_AUC [6, 21]	HACAT_AUC [7, 22]	HEK293T_AUC [8, 23]	NIH3T3_AUC [9, 24]	CRL7250_AUC [10, 25]	MCC_Avg_AUC [11, 26]	VP-MCC_Avg_AUC [12, 27]	Control-VP-MCC [12, 28]	VN-MCC_Avg_AUC [13, 29]	Control-VN-MCC [13, 30]	Control_Avg_AUC [14, 31]	Control-MCC [15, 32]	also measured
COc1cc(CCN)c(OC)cc1Br.Cl																		MCC13_AUC [1]: 402.391; MCC26_AUC [2]: 407.575; UISO_AUC [3]: 386.993; WAGA_AUC [4]: 421.438 and 421.439; MKL1_AUC [5]: 396.289; MKL2_AUC [6]: 390.615; HACAT_AUC [7]: 486.493; HEK293T_AUC [8]: 422.838; NIH3T3_AUC [9]: 468.152; CRL7250_AUC [10]: 439.439; MCC_Avg_AUC [11]: 400.883; Control-VP-MCC [12]: 51.4501; VP-MCC_Avg_AUC [12]: 402.781; Control-VN-MCC [13]: 55.2444; VN-MCC_Avg_AUC [13]: 398.986; Control_Avg_AUC [14]: 454.231; Control-MCC [15]: 53.3472
CCCCOc1ccc(C(=O)CCN2CCCCC2)cc1 [Dyclonine hydrochloride]	493.918	466.065	466.874	405.649	424.663	401.71	461.491	441.492	489.536	454.097	443.147	410.674	50.9798	475.619	-13.9648	461.654	18.5075	
CC[N+]1(CC)CCC(=C(c2ccccc2)c2ccccc2)C1C (stereo not drawn) [Prifinium bromide]	477.436	492.512	446.738	419.066	413.62	411.638	452.968	463.923	466.796	489.513	443.502	414.775	53.5255	472.229	-3.929	468.3	24.7984	

— article PMC11822212, “High-throughput screening identifies Aurora kinase B as a critical therapeutic target for Merkel cell carcinoma” (Nature Communications, 2025)
